# Assay results from patent US20020115640A1, “Farnesyltransferase inhibitors” (priority 2000, published 2002).
# Target: T1, farnesyltransferase (Rattus norvegicus, UniProt Q02293+Q04631)
# T1 construct: The enzyme can be purified according to Cell, 62: 81-88 (1990), utilizing steps one, two, and three; from tissue; host or cells: rat brain
# Assay: Inhibition of farnesyltransferase (3H-farnesyldiphosphate / H-Ras filter assay)
# Assay type: biochemical
# Conditions: 3H-farnesyldiphosphate 0.6 μM, H-Ras 5.0 μM, 37° C., 30 minutes; for inhibition at 0.01 µM: test compound at 10^−8 M; for inhibition at 0.1 µM: test compound at 10^−7 M
# Description: The ability of the compounds of the present invention to inhibit farnesyltransferase can be measured according to the method described in J. Biol. Chem., 266: 14603 (1991) or J. Biol. Chem., 270:660-664 (1995). Procedures for determination of the inhibition of farnesylation of the oncogene protein Ras are described in J. Biol. Chem., 266:15575-15578 (1991) and U.S. Pat. No. 5,245,061. Inhibition of rat brain farnesyltransferase can also be measured in vitro using an Amersham Life Science commercial scintillation proximity assay kit and substituting a biotin-K Ras B fragment (0.1 μM final concentration) for the biotin-lamin substrate provided by Amersham. The enzyme can be purified according to Cell, 62: 81-88 (1990), utilizing steps one, two, and three. […] The percent inhibition of the farnesylation caused by the compounds of the present invention (at 10^−6 M) compared to an uninhibited control sample can be evaluated in the same Amersham test system.
# The mixture was brought to 37° C., treated with enzyme, incubated for 30 minutes, treated with 1 M HCl/ethanol (1 mL) to stop the reaction, stirred for 15 minutes at room temperature, diluted with ethanol (2 mL), filtered through a 2.5 cm glass microfiber filter (Whatman) with ethanol rinses (4×2 mL). The glass transferred to a scintillation vial and treated with scintillation fluid (5 mL). The radioisotope retained on the glass fiber filter was counted and reflected the activity of the enzyme.
# T1 sequence (Q02293 whole entry, one chain of several): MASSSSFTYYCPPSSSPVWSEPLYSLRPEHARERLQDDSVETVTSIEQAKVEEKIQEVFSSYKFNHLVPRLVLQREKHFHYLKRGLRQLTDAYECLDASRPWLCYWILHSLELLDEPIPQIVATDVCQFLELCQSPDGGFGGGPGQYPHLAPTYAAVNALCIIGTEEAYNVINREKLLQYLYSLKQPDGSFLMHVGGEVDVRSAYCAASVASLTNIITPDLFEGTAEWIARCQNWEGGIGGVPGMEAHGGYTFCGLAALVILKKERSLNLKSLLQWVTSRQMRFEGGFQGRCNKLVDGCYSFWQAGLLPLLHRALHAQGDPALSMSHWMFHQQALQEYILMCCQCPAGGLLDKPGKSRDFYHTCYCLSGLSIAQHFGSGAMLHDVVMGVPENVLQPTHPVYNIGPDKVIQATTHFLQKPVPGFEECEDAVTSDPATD
SMILES,inhibition at 0.01 µM [%],inhibition at 0.1 µM [%],further results
"Cn1cncc1C(O)(COc1ccc(C#N)cc1-c1ccc(F)c(Cl)c1)c1ccc(C#N)cc1 (stereo not shown) [Example 65, 3′-chloro-6-(2-(4-cyanophenyl)-2-hydroxy-2-(1-methyl-1H-imidazol-5-yl)ethoxy)4′-fluoro-1,1′-biphenyl-3-carbonitrile]",,,inhibition at 0.001 µM (test compound at 10^−9 M (stated in the cell)): 75%
"Cc1ccccc1-c1cc(Cl)ccc1COC(c1ccc(C#N)cc1)c1cncn1C (stereo not shown) [Example 4, 4-(((5-chloro-2′-methyl(1,1′-biphenyl)-2-yl)methoxy)(1-methyl-1H-imidazol-5-yl)methyl)benzonitrile]",,89,
"Cn1cncc1C(OCc1ccc(C#N)cc1-c1ccc2c(c1)OCO2)c1ccc(C#N)cc1 (stereo not shown) [Example 33, 3-(1,3-benzodioxol-5-yl)-4-(((4-cyanophenyl)(1-methyl-1H-imidazol-5-yl)methoxy)methyl)benzonitrile]",,> 98,
"Cn1cncc1C(OCc1ccc(Cl)cc1-c1cc(Cl)cc(Cl)c1)c1ccc(C#N)cc1 (stereo not shown) [Example 27, 4-((1-methyl-1H-imidazol-5-yl)((3′,5,5′-trichloro(1,1′-biphenyl)-2-yl)methoxy)methyl)benzonitrile]",,47,
"Cn1cncc1C(OCc1c(-c2cccc(Cl)c2)cc(C#N)c(=O)n1C)c1ccc(C#N)c(F)c1 (stereo not shown) [Example 52, 5-(3-chlorophenyl)-6-(((4-cyano-3-fluorophenyl)(1-methyl-1H-imidazol-5-yl)methoxy)methyl)-1-methyl-2-oxo-1,2-dihydro-3-pyridinecarbonitrile]",,100,
"CC(=O)Nc1cccc(-c2cc(Cl)ccc2COC(c2ccc(C#N)cc2)c2cncn2C)c1 (stereo not shown) [Example 22, N-(5′-chloro-2′-(((4-cyanophenyl)(1-methyl-1H-imidazol-5-yl)methoxy)methyl)(1,1′-biphenyl)-3-yl)acetamide]",,64,
"COc1ccc(-c2cc(Cl)ccc2COC(c2ccc(C#N)cc2)c2cncn2C)cc1OC (stereo not shown) [Example 21, 4-(((5-chloro-3′,4′-dimethoxy(1,1′-biphenyl)-2-yl)methoxy)(1-methyl-1H-imidazol-5-yl)methyl)benzonitrile]",,91,

# The next lines start with results.
inhibition at 0.01 µM [%],inhibition at 0.1 µM [%],SMILES,further results
98,,"Cn1cncc1C(O)(COc1ccc(C#N)cc1-c1ccc2c(c1)OCO2)c1ccc(C#N)cc1 (stereo not shown) [Example 55, 3-(1,3-benzodioxol-5-yl)-4-(2-(4-cyanophenyl)-2-hydroxy-2-(1-methyl-1H-imidazol-5-yl)ethoxy)benzonitrile]",
90,,"Cn1cncc1C(O)(COc1ccc(C#N)cc1-c1cccc2ccccc12)c1ccc(C#N)cc1 (stereo not shown) [Example 81, 4-(2-(4-cyanophenyl)-2-hydroxy-2-(1-methyl-1H-imidazol-5-yl)ethoxy)-3-(1-naphthyl)benzonitrile]",
91,,"Cn1cncc1C(F)(COc1ccc(C#N)cc1-c1cc(F)cc(F)c1)c1ccc(C#N)cc1 (stereo not shown) [Example 68, 6-(2-(4-cyanophenyl)-2-fluoro-2-(1-methyl-1H-imidazol-5-yl)ethoxy)-3′,5′-difluoro-1,1′-biphenyl-3-carbonitrile]",
95,,"Cn1cncc1C(O)(COc1ccc(C#N)cc1-c1cccc(OC(F)(F)F)c1)c1ccc(C#N)cc1 (stereo not shown) [Example 69, 6-(2-(4-cyanophenyl)-2-hydroxy-2-(1-methyl-1H-imidazol-5-yl)ethoxy)-3′-(trifluoromethoxy)-1,1′-biphenyl-3-carbonitrile]",
94,,"Cn1cncc1C(F)(COc1ccc(C#N)cc1-c1ccc(Cl)c(Cl)c1)c1ccc(C#N)cc1 (stereo not shown) [Example 72, 3′,4′-dichloro-6-(2-(4-cyanophenyl)-2-fluoro-2-(1-methyl-1H-imidazol-5-yl)ethoxy)-1,1′-biphenyl-3-carbonitrile]",
94,,"Cn1cncc1C(F)(COc1ccc(C#N)cc1-c1cccc(OC(F)(F)F)c1)c1ccc(C#N)cc1 (stereo not shown) [Example 70, 6-(2-(4-cyanophenyl)-2-fluoro-2-(1-methyl-1H-imidazol-5-yl)ethoxy)-3′-(trifluoromethoxy)-1,1′-biphenyl-3-carbonitrile]",
